Results as given in ChEMBL document CHEMBL5500371, “Arginine and tryptophan-rich dendritic antimicrobial peptides that disrupt membranes for bacterial infection in vivo” (Eur J Med Chem, 2024).
Values after ≈ are worked out from the molar mass of the structure shown. Active and inactive are the calls of the source. The rule behind the calls is not given here. Where a SMILES comes first, the peptide text is derived from it. Side-chain parts run from the residue outwards.

Experiments:
Staphylococcus aureus [1] = test: Antibacterial activity against Staphylococcus aureus ATCC 25923 assessed as inhibition of bacterial growth incubated for 20 hrs in presence of ZnCl2 by broth microdilution method (reference value: 8 microM); format: functional
Escherichia coli [2] = test: Antibacterial activity against Escherichia coli ATCC 25922 assessed as inhibition of bacterial growth incubated for 20 hrs in presence of NaCl by broth microdilution method (reference value: 8 microM); format: functional
Escherichia coli [3] = test: Antibacterial activity against Escherichia coli ATCC 25922 assessed as inhibition of bacterial growth preincubated with 10% mouse serum for 6 hrs and measured after 20 hrs by broth microdilution method; format: functional; settings: time 26 hrs
[4] = Therapeutic index, ratio of MHC10 for hemolytic activity in mouse erythrocytes preincubated with 10% mouse serum for 1 hr to MIC for Escherichia coli ATCC 25922 preincubated with 10% mouse serum for 1 hr; format: toxicity, cell-based; settings: mouse erythrocytes, read-out: TI
Staphylococcus aureus [5] = test: Antibacterial activity against Staphylococcus aureus ATCC 25923 assessed as inhibition of bacterial growth preincubated with 10% mouse serum for 1 hr and measured after 20 hrs by broth microdilution method; format: functional; settings: time 21 hrs
Staphylococcus aureus [6] = test: Antibacterial activity against Staphylococcus aureus ATCC 25923 assessed as inhibition of bacterial growth by measuring fold increase in MIC incubated for 20 hrs in presence of FeCl3 by broth microdilution method relative to control; format: functional
Staphylococcus aureus [7] = test: Antibacterial activity against Staphylococcus aureus ATCC 25923 assessed as inhibition of bacterial growth incubated for 20 hrs in presence of FeCl3 by broth microdilution method (reference value: 8 microM); format: functional
Staphylococcus aureus [8] = test: Antibacterial activity against Staphylococcus aureus ATCC 25923 assessed as inhibition of bacterial growth incubated for 20 hrs in presence of NaCl by broth microdilution method (reference value: 8 microM); format: functional
Klebsiella pneumoniae = test: Antibacterial activity against Klebsiella pneumoniae ATCC 700603 assessed as inhibition of bacterial growth incubated for 20 hrs by broth microdilution method; format: functional
[9] = Therapeutic index, ratio of MHC10 for hemolytic activity in mouse erythrocytes preincubated with 10% mouse serum for 1 hr to MIC for Staphylococcus aureus ATCC 25923 preincubated with 10% mouse serum for 1 hr; format: toxicity, cell-based; settings: mouse erythrocytes, read-out: TI
Escherichia coli [10] = test: Antibacterial activity against Escherichia coli ATCC 25922 assessed as inhibition of bacterial growth preincubated with 10% mouse serum for 1 hr and measured after 20 hrs by broth microdilution method; format: functional; settings: time 21 hrs
Escherichia coli [11] = test: Antibacterial activity against Escherichia coli ATCC 25922 assessed as inhibition of bacterial growth incubated for 20 hrs in presence of KCl by broth microdilution method (reference value: 8 microM); format: functional
Staphylococcus aureus [12] = test: Antibacterial activity against Staphylococcus aureus ATCC 25923 assessed as inhibition of bacterial growth by measuring fold increase in MIC incubated for 20 hrs in presence of MgCl2 by broth microdilution method relative to control; format: functional
Escherichia coli [13] = test: Antibacterial activity against Escherichia coli ATCC 25922 assessed as inhibition of bacterial growth incubated for 20 hrs in presence of ZnCl2 by broth microdilution method (reference value: 8 microM); format: functional
Staphylococcus aureus [14] = test: Antibacterial activity against Staphylococcus aureus ATCC 25923 assessed as inhibition of bacterial growth incubated for 20 hrs by broth microdilution method; format: functional
Erythrocyte = test: Hemolytic activity in mouse erythrocytes assessed as 10% hemolysis incubated for 1 hr by absorbance based analysis; format: toxicity, cell-based
Staphylococcus aureus [15] = test: Antibacterial activity against Staphylococcus aureus ATCC 25923 assessed as inhibition of bacterial growth by measuring fold increase in MIC incubated for 20 hrs in presence of NaCl by broth microdilution method relative to control; format: functional
Staphylococcus aureus [16] = test: Antibacterial activity against Staphylococcus aureus ATCC 25923 assessed as inhibition of bacterial growth incubated for 20 hrs in presence of KCl by broth microdilution method (reference value: 8 microM); format: functional
Staphylococcus aureus [17] = test: Antibacterial activity against Staphylococcus aureus ATCC 25923 assessed as inhibition of bacterial growth incubated for 20 hrs in presence of MgCl2 by broth microdilution method (reference value: 8 microM); format: functional
[18] = Hemolytic activity in mouse erythrocytes at 256 uM preincubated for 1 to 6 hr with 10% mouse serum and measured after 1 hr by absorbance based analysis; format: toxicity, cell-based, Erythrocyte; settings: time 1-7 hrs, read-out: Activity
Staphylococcus aureus [19] = test: Antibacterial activity against Staphylococcus aureus ATCC 25923 assessed as inhibition of bacterial growth preincubated with 10% mouse serum for 6 hrs and measured after 20 hrs by broth microdilution method; format: functional; settings: time 21 hrs
[20] = Therapeutic index, ratio of MHC10 for hemolytic activity in mouse erythrocytes preincubated with 10% mouse serum for 6 hrs to MIC for Staphylococcus aureus ATCC 25923 preincubated with 10% mouse serum for 6 hrs; format: toxicity, cell-based; settings: mouse erythrocytes, read-out: TI
Pseudomonas aeruginosa = test: Antibacterial activity against Pseudomonas aeruginosa ATCC 27853 assessed as inhibition of bacterial growth incubated for 20 hrs by broth microdilution method; format: functional
[21] = Cytotoxicity against HEK293T cells assessed as cell death measured after 1 hr by resazurin dye based analysis; format: toxicity, HEK-293T; settings: human, HEK293T cells
[22] = Therapeutic index, ratio of MHC10 for hemolytic activity in mouse erythrocytes preincubated with 10% mouse serum for 6 hrs to MIC for Escherichia coli ATCC 25922 preincubated with 10% mouse serum for 6 hrs; format: toxicity, cell-based; settings: mouse erythrocytes, read-out: TI
[23] = Stability in mouse serum assessed as half life at 10 mM measured upto 24 hrs by RP-HPLC analysis; format: ADME, cell-free
Staphylococcus aureus [24] = test: Antibacterial activity against Staphylococcus aureus ATCC 25923 assessed as inhibition of bacterial growth by measuring fold increase in MIC incubated for 20 hrs in presence of ZnCl2 by broth microdilution method relative to control; format: functional
Bacillus subtilis = test: Antibacterial activity against Bacillus subtilis ATCC 23857 assessed as inhibition of bacterial growth incubated for 20 hrs by broth microdilution method; format: functional
Escherichia coli [25] = test: Antibacterial activity against Escherichia coli ATCC 25922 assessed as inhibition of bacterial growth incubated for 20 hrs in presence of MgCl2 by broth microdilution method (reference value: 8 microM); format: functional
Staphylococcus aureus [26] = test: Antibacterial activity against Staphylococcus aureus ATCC 25923 assessed as inhibition of bacterial growth by measuring fold increase in MIC incubated for 20 hrs in presence of KCl by broth microdilution method relative to control; format: functional
Escherichia coli [27] = test: Antibacterial activity against Escherichia coli ATCC 25922 assessed as inhibition of bacterial growth incubated for 20 hrs by broth microdilution method; format: functional
Escherichia coli [28] = test: Antibacterial activity against Escherichia coli ATCC 25922 assessed as inhibition of bacterial growth incubated for 20 hrs in presence of FeCl3 by broth microdilution method (reference value: 8 microM); format: functional
Acinetobacter baumannii = test: Antibacterial activity against Acinetobacter baumannii ATCC 19606 assessed as inhibition of bacterial growth incubated for 20 hrs by broth microdilution method; format: functional
Escherichia coli [29] = test: Resistant development in Escherichia coli assessed as increase in MIC at sub-MIC measured after 20 passages; format: functional, organism-based
Staphylococcus aureus [30] = test: Drug resistance, ratio of MIC for Staphylococcus aureus after 14 to 19 passages to MIC for Staphylococcus aureus after initial exposure; format: functional, organism-based
Escherichia coli [31] = test: Drug resistance, ratio of MIC for Escherichia coli after 14 to 19 passages to MIC for Escherichia coli after initial exposure; format: functional, organism-based

N=C(N)NCCC[C@H](NC(=O)[C@H](CCCNC(=N)N)NC(=O)[C@H](CCCNC(=N)N)NC(=O)[C@H](CCCNC(=N)N)NC(=O)[C@H](CCCCNC(=O)[C@H](Cc1c[nH]c2ccccc12)NC(=O)[C@@H](N)Cc1c[nH]c2ccccc12)NC(=O)[C@H](Cc1c[nH]c2ccccc12)NC(=O)[C@@H](N)Cc1c[nH]c2ccccc12)C(N)=O (H-WWK([Trp-Trp])RRRR-NH2)
MIC (Staphylococcus aureus [1]): 8 µM | MIC (Escherichia coli [2]): 16 µM | MIC (Escherichia coli [3]): 16 µM (≈ 24.2 µg/mL) | selectivity ratio [4]: 0.5 | MIC (Staphylococcus aureus [5]): 2 µM (≈ 3.03 µg/mL) | fold change (FC) (Staphylococcus aureus [6]): <=2 | MIC (Staphylococcus aureus [7]): 8 µM | MIC (Staphylococcus aureus [8]): 8 µM | MIC (Klebsiella pneumoniae): 128 µM (≈ 194 µg/mL) | selectivity ratio [9]: 0.5 | MIC (Escherichia coli [10]): 2 µM (≈ 3.03 µg/mL) | MIC (Escherichia coli [11]): 8 µM | fold change (FC) (Staphylococcus aureus [12]): <=2 | MIC (Escherichia coli [13]): 8 µM | MIC (Staphylococcus aureus [14]): 8 µM (≈ 12.1 µg/mL) | MHC10 (Erythrocyte): > 256 µM | fold change (FC) (Staphylococcus aureus [15]): <=2 | MIC (Staphylococcus aureus [16]): 8 µM | MIC (Staphylococcus aureus [17]): 8 µM | hemolysis at 1 h, 256 µM [18]: < 10% | MIC (Staphylococcus aureus [19]): 8 µM (≈ 12.1 µg/mL) | selectivity ratio [20]: 0.13 | MIC (Pseudomonas aeruginosa): 32 µM (≈ 48.5 µg/mL) | CC50 at 1 h [21]: > 128 µM | selectivity ratio [22]: 0.06 | half-life at 10000 µM [23]: 32.4 min | fold change (FC) (Staphylococcus aureus [24]): <=2 | MIC (Bacillus subtilis): 8 µM (≈ 12.1 µg/mL) | MIC (Escherichia coli [25]): 8 µM | fold change (FC) (Staphylococcus aureus [26]): <=2 | MIC (Escherichia coli [27]): 8 µM (≈ 12.1 µg/mL) | MIC (Escherichia coli [28]): 8 µM | MIC (Acinetobacter baumannii): 64 µM (≈ 96.9 µg/mL)

CO[C@H]1/C=C/O[C@@]2(C)Oc3c(C)c(O)c4c(O)c(c(/C=N/N5CCN(C)CC5)c(O)c4c3C2=O)NC(=O)/C(C)=C\C=C\[C@H](C)[C@H](O)[C@@H](C)[C@@H](O)[C@@H](C)[C@H](OC(C)=O)[C@@H]1C [RIFAMPIN]
MIC (Klebsiella pneumoniae): 32 µM (≈ 26.3 µg/mL) | MIC (Staphylococcus aureus [14]): < 1 µM | Activity (Escherichia coli [29]): Active | MIC (Pseudomonas aeruginosa): 32 µM (≈ 26.3 µg/mL) | MIC (Bacillus subtilis): < 1 µM | MIC (Escherichia coli [27]): 4 µM (≈ 3.29 µg/mL) | MIC (Acinetobacter baumannii): < 1 µM

GENTAMICIN
Ratio (Staphylococcus aureus [30]): 32 | Activity (Escherichia coli [29]): Active | Ratio (Escherichia coli [31]): 32

H-RRRRKWWW-NH2
MIC (Klebsiella pneumoniae): 64 µM | MIC (Staphylococcus aureus [14]): 8 µM | MHC10 (Erythrocyte): > 256 µM | MIC (Pseudomonas aeruginosa): 16 µM | CC50 at 1 h [21]: > 128 µM | MIC (Bacillus subtilis): 8 µM | MIC (Escherichia coli [27]): 64 µM | MIC (Acinetobacter baumannii): 128 µM
